Data taken from PubChem BioAssay AID179 (DTP/NCI, 2004).
Values joined by “and” are separate entries in the source; they are usually repeats but may differ in a detail not shown here. Equal entries are not always repeated. Active and inactive are the calls of the source.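 Rule for the calls: active = compounds giving half or more protection of infected cells from virus-caused growth loss, again on retest; inactive = the rest.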 Where a SMILES comes first, the peptide text is derived from it. The star is where a group is joined. Cbz = O=C(OCc1ccccc1)*; Boc = CC(C)(C)OC(=O)*; OSu = O=C1CCC(=O)N1O*; Bn = c1ccc(C*)cc1

Test system: CEM cells HIV-1 protection, formazan growth assay
Test: NCI AIDS Antiviral Assay
Conditions: for IC50: measured here: growth of uninfected CEM cells
Procedure, shortened: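 Protection of CEM cells against HIV-1 was scored from cell growth (soluble formazan) across five concentrations, with parallel uninfected cells. Lack of protection may reflect toxicity.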

Compound	EC50 [µM]	IC50	outcome
Cc1ccccc1C1=C/C(=C(\SS/C(C(=O)c2ccc(OCC(=O)O)c(Cl)c2Cl)=C2\C=C(c3ccccc3C)SS2)C(=O)c2ccc(OCC(=O)O)c(Cl)c2Cl)SS1	> 26.9	> 26.9 µM	–
COC(=O)/C=C/c1cnc2c(c1)oc(=O)n2CCc1ccccn1	> 200	24 µM	–
Cc1ccc(NC(=O)c2cc3c(cc2Cl)Sc2nccn2S3(=O)=O)cc1	> 200	61.7 µM	–
NNC1=Nc2ccc(Cl)cc2C(=S)N2CSCC12 (stereo unspecified)	> 200	> 200 µM	–
COC(=O)c1ncn(C)c1O	> 200	> 200 µM	–
CO[C@H]1C=CO[C@@]2(C)Oc3c(C)c(O)c4c(O)c(c(CN5CCN(C)CC5)c(O)c4c3C2=O)NC(=O)/C(C)=C\C=C[C@H](C)[C@H](O)C(C)[C@@H](O)C(C)[C@H](OC(C)=O)[C@@H]1C (stereo partly specified)	–	–	inactive
Cc1cn(C2CC(O)C(COC(=O)CCCCCCCCCCBr)O2)c(=O)[nH]c1=O (stereo unspecified)	> 102	53.7 µM	–
Cc1ccc(-c2n[nH]c(=O)n2/N=C\c2ccccc2)cc1	> 200	110 µM	–
CCC1=CCN(c2ccccn2)OC1c1ccc(OC)cc1 (stereo unspecified)	> 63.1	60.3 µM	–
N#Cc1c(-c2ccccc2)c(C#N)c(=S)n(C2OCC(O)C(O)C2O)c1N (stereo unspecified)	> 200	195 µM and > 200 µM	–
Cc1cc(-c2ccc(N=Nc3c(N)c(C)cc(S(=O)(=O)O)c3N)c(C)c2)ccc1N=Nc1ccc(O)c(C(=O)O)c1	126	> 200 µM	–
COc1cccc(N2C(=O)C3c4[nH]c5ccc(C)cc5c4C4CCC(C)CC4C3C2=O)c1 (stereo unspecified)	> 100	> 100 µM	–
CC(C)(C)c1ccc2c(c1)CNCCNCCNCc1cc(C(C)(C)C)ccc1OCC1(CO2)COc2ccc(C(C)(C)C)cc2CNCCNCCNCc2cc(C(C)(C)C)ccc2OC1	> 1.51	0.813 µM	–
CCN(CC)CCNc1ccc2ncn3c4c(OC)cccc4c(=O)c1c23	> 50.1	0.871 µM	–
Cc1ccc(N(CC(=O)O)S(=O)(=O)c2ccccc2)cc1	–	–	inactive
Cn1ccnc1CCc1ccc(Cl)c(Cl)c1	> 851	97.7 µM	–
Cc1cc2nc(=O)cc(CCl)n2c(=O)n1C(=O)C(O)C(O)C(O)CO (stereo unspecified)	–	–	inactive
CCC[N+](C)(C)CCCNC(=O)c1c(O)c2ccccc2[nH]c1=O	178	182 µM	–
N#Cc1cccc(-n2[nH]c(=O)ccc2=O)c1	> 200	> 200 µM	–
O=c1cc(N=Nc2ccc(Br)cc2)[nH]c(=S)[nH]1	> 200	1.1 µM	–
N=C1N=Nc2nc(C(C(=O)c3cccc4ccccc34)c3nc4n(c3O)C(=N)N=N4)c(O)n21 (stereo unspecified)	> 200	117 µM	–
COc1ccc(-c2cc(=O)c3c(OC)c(OC)c(OC)c(OC)c3o2)cc1OC	> 200	33.9 µM	–
CCOC(=O)Cc1nc2sc3c(c2c(=O)[nH]1)CCCC3	> 324	> 324 µM	–

Compound	EC50 [µM]	IC50	outcome
C[C@H]1C(=O)c2c(cc(O)c(C3OC(CO)C(O)C(O)C3O)c2O)OC1c1ccc(O)c(O)c1 (stereo partly specified)	–	–	inactive
S=c1cc(S)c(=S)[nH][nH]1	> 63.1	19.5 µM	–
CCOP(=O)(CCn1cc(C)c(=O)[nH]c1=O)OCC	> 871	> 871 µM	–
CC1(C)C(=O)C(C)(C)C1=NNC(N)=S	> 417	263 µM	–
COc1cc(Cc2ccc3c(c2C#N)N(C)c2ccccc2S3)cc(OC)c1OC	> 200	3.63 µM	–
N#C/C(=C\c1c(Cl)cccc1Cl)c1nc2ccccc2[nH]1	> 200	24.5 µM	–
CC(C)C1=CC(=O)C(C)(C2=NC(C)(C)CO2)c2ccccc21 (stereo unspecified)	> 437	> 437 µM	–
CC(CCC=C(c1cc(Cl)c(O)c(C(=O)O)c1)c1cc(Cl)c(O)c(C(=O)O)c1)C1CCC2C3CC[C@@H]4CCCC[C@]4(C)C3CC[C@]12C (stereo partly specified)	> 7.24	> 7.24 µM	–
CCOC(=O)C1Cc2c([nH]c(=O)[nH]c2=O)OC1(C)c1ccccc1 (stereo unspecified)	> 200	> 200 µM	–
N#CC1(C2CC(=O)N(c3ccccc3)C2=O)CCCCC1=O (stereo unspecified)	–	–	inactive
CCCNCC(=O)O[C@]1(CC)C(=O)OCc2c1cc1n(c2=O)Cc2cc3ccccc3nc2-1	> 10	0.0525 µM	–
CCOC(=O)Nc1cc2c(c(N)n1)N=C(c1ccc3ccccc3c1)CN2	> 200	0.309 µM	–
C=C1CCC(=O)NC1=O	–	–	inactive
COc1ccc(OC(C(=O)O)C(C)C)c2c1CCCC2=O (stereo unspecified)	–	–	inactive
S=C(S)N1CCNCC1	–	–	inactive
N#CC(C#N)=c1ccc(=C2NCC3CCCN23)cc1 (stereo unspecified)	–	–	inactive
CC/C=C/C(=O)CC(O)(C(F)(F)F)C(F)(F)F	> 200	> 200 µM	–
CC1CN=C(Nc2ccc(F)c(Cl)c2)S1 (stereo unspecified)	> 200	132 µM	–
O=C(O)CSc1n[nH]c(-c2ccccc2O)n1	> 372	182 µM	–
O=[N+]([O-])c1cccc2nc3ccccc3c(NCCCn3ccnc3[N+](=O)[O-])c12	> 0.2	0.0457 µM	–
N=C(N)C1CN(CCc2c[nH]c3ccccc23)C(=O)NC1=O (stereo unspecified)	> 200	> 200 µM	–
CC1(C)C2CCC3(OCCO3)C1C(O)C2 (stereo unspecified)	> 427	> 427 µM	–
CC(C)(C)OC(=O)NC(Cc1ccc(OCc2ccccc2)cc1)C(=O)NC(CCCCNC(=O)OCc1ccccc1)C(=O)ON1C(=O)CCC1=O (stereo unspecified) (Boc-Tyr(Bn)-Lys(Cbz)-OSu; configuration not given here)	> 200	36.3 µM	–

Compound	EC50 [µM]	IC50	outcome
O=C1CSC(/C=C/c2ccccc2)N1c1ccc(-c2ccc(-n3c(-c4ccccc4)nc4ccccc4c3=O)cc2)cc1 (stereo unspecified)	> 200	28.2 µM	–
CCOC(=O)CC1=N/C(=N/C(=N)N[N+](=O)[O-])SC1	–	–	inactive
CC1CCc2c(sc3ncnc(N/N=C/c4ccc(Cl)cc4)c23)C1 (stereo unspecified)	> 14.5	> 14.5 µM	–
CC1(C)C=[N+]([O-])C(C)(C)N1	> 200	> 200 µM	–
Cc1cccc(NS(=O)(=O)c2ccc3c(c2)OCCOCCOCCOCCO3)c1	> 200	158 µM	–
O=C(C[C@H](Cl)[C@H](NC(=O)OCc1ccccc1)C(=O)O)NO	–	–	inactive
O=C(NCc1ccccc1)c1n[nH][nH]c1=O	> 200	> 200 µM	–
CSc1c(C#N)c(S)n(-c2ccc(Cl)cc2)c(=O)c1C#N	> 200	52.5 µM	–
O=C(O)c1ccc2c(O)c(O)ccc2c1	> 77.6	6.03 µM	–
COc1ccc(C(C)NNC(=O)c2ccncc2)c(OC)c1 (stereo unspecified)	> 200	29.5 µM	–
O=C1/C(=C\c2cccc(Oc3ccccc3)c2)S(=O)(=O)C(c2ccccc2)N1c1cccc([N+](=O)[O-])c1 (stereo unspecified)	> 200	9.55 µM	–
Cc1ccccc1N1CC2CC3C=CC2(C1)O3 (stereo unspecified)	> 200	> 200 µM	–
CNc1nc(N)[nH]c(=O)c1N=O	–	–	inactive
COc1cc2c(c3c1C=CCO3)C(=O)c1ccccc1C2=O	–	–	inactive
CCOC(=O)c1c(/C=N\Nc2ccccc2)nc2ccccc2c1-c1ccccc1	> 64.6	26.3 µM	–
c1ccc2c(c1)Sc1ccccc1S2	> 200	> 200 µM	–
COCc1c(C(=O)NCCO)[n+](=O)c2ccccc2n1[O-]	> 87.1	> 87.1 µM	–
C=CC1=C(C)C2=NC1=CC1=NC(=CC3=C(C)C4=C(O)C(C(=O)OC)C(=C5NC(=C2)C(C)C5CCC(=O)OC/C=C(\C)CCCC(C)CCCC(C)CCCC(C)C)C4=N3)C(CC)=C1C (stereo unspecified)	> 100	2.14 µM	–
N#COc1ccc(Oc2ccccc2)cc1	> 24.5	> 24.5 µM	–
COc1cccc(-n2nnc3c(N)nc(N)nc32)c1	> 200	> 200 µM	–
CC1=C(C(=O)CC(=O)C(=O)Nc2cc(C)ccc2C)Sc2ccccc2N1	> 10	> 10 µM	–
Cc1nccnc1N1CCCCC1	> 200	> 200 µM	–
Clc1cc(Cl)cc(C2SCc3nc4ccccc4n32)c1 (stereo unspecified)	–	–	inactive

Compound	EC50 [µM]	IC50	outcome
COc1cc2c(cc1OC)C1c3ccccc3CCN1CCC2 (stereo unspecified)	> 200	> 200 µM	–
O=C1C(=Nc2ccc(Nc3ccccc3)cc2)Oc2ccccc21	> 200	3.09 µM	–
Cc1cc(=O)oc2c(C3=NN(C=O)C(c4ccccc4)C3)c(O)ccc12 (stereo unspecified)	–	–	inactive
CC(CC(=O)Nc1ccc(NC(=O)CC(C)N=NC(N)=O)cc1)N=NC(N)=O (stereo unspecified)	> 129	> 129 µM	–
COC(=O)C1(C(=O)OC)Cc2ccc(OC)cc2C2=C1C(=O)c1ccccc1C2=O	> 20	0.275 µM	–
N#Cc1ccc([N+](=O)[O-])cc1NC(N)=S	> 224	> 224 µM	–
Cn1c2ccccc2c2nnc(NCCCO)nc21	> 200	148 µM	–
O=C1CSc2ccnc(=O)n21	> 200	> 200 µM	–
COc1cc(O)c2c(=O)c3c(OC)c(O)ccc3oc2c1	> 200	56.2 µM	–
O=C1C(=C2C(=O)c3ccccc3[N+]2=O)N([O-])c2ccccc21	–	–	inactive
CCN(N=O)C1C2(CCCC2)NC(=O)C12CCCC2 (stereo unspecified)	–	–	inactive
CC1(C)CN=CC(C)(OCc2ccccc2)C(=O)NC(C)(C)CN=CC(C)(OCc2ccccc2)C(=O)N1 (stereo unspecified)	> 7.24	> 7.24 µM	–
CC1=C(C(=O)CC(=O)C(=O)Nc2cccc(C)c2C)Sc2ccccc2N1	> 331	> 331 µM	–
O=S(=O)(c1ccc(Br)cc1)S(=O)(=O)c1ccc(Br)cc1	> 11.7	> 11.7 µM	–
CS(=O)(=O)c1nc2nc[nH]c2c(=O)[nH]1	> 200	> 200 µM	–
O=C(O)CSC(=S)NCCNC(=S)SCC(=O)O	> 95.5	72.4 µM	–
OC(c1ccco1)C(F)(F)c1nc2ccccc2o1 (stereo unspecified)	> 200	> 200 µM	–
Cc1noc(C)c1C1=CCCCc2ccccc21	> 30.2	> 30.2 µM	–
Cc1ccc(S(=O)(=O)OCC2CC[C@]3(C)C4CCC5(C)C(CCC5[C@H](C)CCC(=O)O)[C@@H]4CC[C@@H]3C2)cc1 (stereo partly specified)	> 4.9	> 4.9 µM	–
CCOC(=O)C1=C(C)NC2=C(C(=O)N(c3ccccc3)C2c2ccccc2)C1c1ccccc1 (stereo unspecified)	> 41.7	> 41.7 µM	–
